Key:
[1] = Plasma leuprolide pharmacokinetics after IV, SQ and intranasal (IN) administration, five-way crossover volunteer trial, ELISA; design: Absolute bioavailability, % of IV: dose or concentration left out as unconfirmed; details: human, in vivo; for bioavailability / AUC / Cmax: female
Excerpt: In the following example, the inventors sought to compare the intranasal (“IN”) administration of leuprolide using the methods and compositions of the invention with prior art methods of administration (subcutaneous (“SQ”) and intravenous (“IV”)).

[2] = human, in vivo
Protocol: The design of the experiment was a five-way, crossover, randomized, partially double-blind, volunteer trial. Women were given leuprolide 1 mg IV and SQ, and IN as novel formulation at 1 mg (one spray), 2 mg (one spray) and 6 mg (three sprays), in random order. There was one dosing regimen on each of five separate days, with each day separated by at least two washout days. Blood for leuprolide measurement was collected via indwelling catheter at baseline and on eighteen occasions, up to twenty four hours after dosing. Plasma was separated and the leuprolide concentrations determined by enzyme linked immunosorbant assays (ELISA). Throughout the study subjects were monitored for adverse events and given nasal examinations.

CC(=O)O.CCNC(=O)[C@@H]1CCCN1C(=O)[C@H](CCCNC(=N)N)NC(=O)[C@H](CC(C)C)NC(=O)[C@@H](CC(C)C)NC(=O)[C@H](Cc1ccc(O)cc1)NC(=O)[C@H](CO)NC(=O)[C@H](Cc1c[nH]c2ccccc12)NC(=O)[C@H](Cc1c[nH]cn1)NC(=O)[C@@H]1CCC(=O)N1 [leuprolide, 5-oxo-L-prolyl-L-histidyl-L-tryptophyl-L-seryl-L-tyrosyl-D-leucyl-L-leucyl-L-arginyl-N-ethyl-L-prolinamide acetate salt]
bioavailability [1]: 95 ± 17%
AUC ([1]; inhaled or intranasal, 1 mg): 15 ± 8 ng·h/mL
Cmax ([1]; inhaled or intranasal, 1 mg): 5 ± 3 ng/mL
bioavailability ([1]; inhaled or intranasal, 1 mg): 13 ± 7%
AUC ([1]; inhaled or intranasal, 2 mg): 31 ± 16 ng·h/mL
Cmax ([1]; inhaled or intranasal, 2 mg): 11 ± 6 ng/mL
bioavailability ([1]; inhaled or intranasal, 2 mg): 14 ± 7%
AUC ([1]; inhaled or intranasal, 6 mg): 56 ± 28 ng·h/mL
Cmax ([1]; inhaled or intranasal, 6 mg): 22 ± 11 ng/mL
AUC ([1]; iv, 1 mg): 120 ± 25 ng·h/mL
Cmax ([1]; iv, 1 mg): 85 ± 33 ng/mL
AUC ([1]; sc, 1 mg): 111 ± 21 ng·h/mL
Cmax ([1]; sc, 1 mg): 35 ± 8 ng/mL
Absolute bioavailability, % of IV [1]: 8 ± 3 % of IV
Absolute bioavailability, % of IV ([1]; iv): 100 % of IV
Adverse events noted [2]: rhinorrhea and altered taste sensation
Serious adverse events [2]: No serious adverse events were reported

From patent US20040248804A1, “Nasal administration of the LH-RH analog Leuprolide” (priority 2003, published 2004)
